# From PubChem BioAssay (NCI)
#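 Briefly, cells in 96-well plates were exposed to five compound concentrations for 48 h, and endpoints were estimated by linear interpolation. TGI denotes the concentration required for complete inhibition of growth.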
# What was measured:
# Assay in all cases: NCI anticancer screen, dose series, 48 h
# A549 NSCLC = tested on: A549 NSCLC
# LOX IMVI melanoma = tested on: LOX IMVI melanoma
# DU-145 prostate = tested on: DU-145 prostate
# OVCAR-5 ovarian = tested on: OVCAR-5 ovarian
# NCI-H226 lung = tested on: NCI-H226 lung
# TK-10 renal = tested on: TK-10 renal
# OVCAR-8 ovarian = tested on: OVCAR-8 ovarian
# SR leukemia = tested on: SR leukemia
# U251 CNS = tested on: U251 CNS
# HCT-116 colon = tested on: HCT-116 colon
# CCRF-CEM leukemia = tested on: CCRF-CEM leukemia
# SF-539 CNS = tested on: SF-539 CNS
# HOP-62 NSCLC = tested on: HOP-62 NSCLC
# SW-620 colon = tested on: SW-620 colon
# K-562 leukemia = tested on: K-562 leukemia
# NCI-H23 lung = tested on: NCI-H23 lung
# HL-60(TB) leukemia = tested on: HL-60(TB) leukemia
# MDA-N = tested on: MDA-N
# RPMI-8226 leukemia = tested on: RPMI-8226 leukemia
# PC-3 prostate = tested on: PC-3 prostate
# NCI/ADR-RES ovarian = tested on: NCI/ADR-RES ovarian
# EKVX NSCLC = tested on: EKVX NSCLC
# UACC-62 melanoma = tested on: UACC-62 melanoma
# MDA-MB-231 breast = tested on: MDA-MB-231 breast
# HCC-2998 colon = tested on: HCC-2998 colon
# ACHN renal = tested on: ACHN renal
# SK-MEL-5 melanoma = tested on: SK-MEL-5 melanoma
# UACC-257 melanoma = tested on: UACC-257 melanoma
# SK-MEL-28 melanoma = tested on: SK-MEL-28 melanoma
# MOLT-4 leukemia = tested on: MOLT-4 leukemia
# 786-0 renal = tested on: 786-0 renal
# IGROV1 ovarian = tested on: IGROV1 ovarian
# SN12C renal = tested on: SN12C renal
# KM12 colon = tested on: KM12 colon
# SF-295 CNS = tested on: SF-295 CNS
# SNB-75 CNS = tested on: SNB-75 CNS
# NCI-H460 lung = tested on: NCI-H460 lung
# A498 renal = tested on: A498 renal
# SF-268 CNS = tested on: SF-268 CNS
# T-47D breast = tested on: T-47D breast
# BT-549 breast = tested on: BT-549 breast
# SNB-19 CNS = tested on: SNB-19 CNS
# HT29 colon = tested on: HT29 colon
# HOP-92 NSCLC = tested on: HOP-92 NSCLC
# MDA-MB-435 = tested on: MDA-MB-435
# COLO 205 colon = tested on: COLO 205 colon
# MCF7 breast = tested on: MCF7 breast
# HS 578T breast = tested on: HS 578T breast
# M14 melanoma = tested on: M14 melanoma
# HCT-15 colon = tested on: HCT-15 colon
# OVCAR-4 ovarian = tested on: OVCAR-4 ovarian
# CAKI-1 renal = tested on: CAKI-1 renal
# UO-31 renal = tested on: UO-31 renal
# MALME-3M melanoma = tested on: MALME-3M melanoma
# SK-MEL-2 melanoma = tested on: SK-MEL-2 melanoma
# SK-OV-3 ovarian = tested on: SK-OV-3 ovarian
# RXF 393 renal = tested on: RXF 393 renal
# NCI-H522 lung = tested on: NCI-H522 lung
# OVCAR-3 ovarian = tested on: OVCAR-3 ovarian
compound,measurement,setting,value
O=C1N2CCN=C2c2ccccc2C1(O)c1ccccc1 (stereo unspecified),TGI,A549 NSCLC,> 100 µM
same,TGI,LOX IMVI melanoma,> 100 µM
same,TGI,DU-145 prostate,> 100 µM
same,TGI,OVCAR-5 ovarian,> 100 µM
same,TGI,NCI-H226 lung,> 100 µM
same,TGI,TK-10 renal,> 100 µM
same,TGI,OVCAR-8 ovarian,> 100 µM
same,TGI,SR leukemia,> 100 µM
same,TGI,U251 CNS,> 100 µM
same,TGI,HCT-116 colon,> 100 µM
same,TGI,CCRF-CEM leukemia,> 100 µM
same,TGI,SF-539 CNS,> 100 µM
same,TGI,HOP-62 NSCLC,> 100 µM
same,TGI,SW-620 colon,> 100 µM
same,TGI,K-562 leukemia,> 100 µM
same,TGI,NCI-H23 lung,> 100 µM
same,TGI,HL-60(TB) leukemia,> 100 µM
same,TGI,MDA-N,> 100 µM
same,TGI,RPMI-8226 leukemia,> 100 µM
same,TGI,PC-3 prostate,> 100 µM
same,TGI,NCI/ADR-RES ovarian,> 100 µM
same,TGI,EKVX NSCLC,> 100 µM
same,TGI,UACC-62 melanoma,> 100 µM
same,TGI,MDA-MB-231 breast,> 100 µM
same,TGI,HCC-2998 colon,> 100 µM
same,TGI,ACHN renal,> 100 µM
same,TGI,SK-MEL-5 melanoma,> 100 µM
same,TGI,UACC-257 melanoma,> 100 µM
same,TGI,SK-MEL-28 melanoma,> 100 µM
same,TGI,MOLT-4 leukemia,> 100 µM
same,TGI,786-0 renal,> 100 µM
same,TGI,IGROV1 ovarian,> 100 µM
same,TGI,SN12C renal,> 100 µM
same,TGI,KM12 colon,> 100 µM
same,TGI,SF-295 CNS,> 100 µM
same,TGI,SNB-75 CNS,> 100 µM
same,TGI,NCI-H460 lung,> 100 µM
same,TGI,A498 renal,> 100 µM
same,TGI,SF-268 CNS,> 100 µM
same,TGI,T-47D breast,> 100 µM
same,TGI,BT-549 breast,> 100 µM
same,TGI,SNB-19 CNS,> 100 µM
same,TGI,HT29 colon,> 100 µM
same,TGI,HOP-92 NSCLC,> 100 µM
same,TGI,MDA-MB-435,> 100 µM
same,TGI,COLO 205 colon,> 100 µM
same,TGI,MCF7 breast,> 100 µM
same,TGI,HS 578T breast,> 100 µM
same,TGI,M14 melanoma,> 100 µM
same,TGI,HCT-15 colon,> 100 µM
same,TGI,OVCAR-4 ovarian,> 100 µM
same,TGI,CAKI-1 renal,> 100 µM
same,TGI,UO-31 renal,> 100 µM
c1ccc2c3c(c(N4CCNCC4)nc2c1)CCCC3,TGI,A549 NSCLC,30.8 µM
same,TGI,LOX IMVI melanoma,27.2 µM
same,TGI,DU-145 prostate,28.6 µM
same,TGI,OVCAR-5 ovarian,26.9 µM
same,TGI,NCI-H226 lung,29.6 µM
same,TGI,TK-10 renal,26.6 µM
same,TGI,MALME-3M melanoma,37.3 µM
same,TGI,OVCAR-8 ovarian,29.6 µM
same,TGI,SR leukemia,> 100 µM
same,TGI,SK-MEL-2 melanoma,25.2 µM
same,TGI,U251 CNS,26.2 µM
same,TGI,HCT-116 colon,27.5 µM
same,TGI,CCRF-CEM leukemia,31.4 µM
same,TGI,SF-539 CNS,23.2 µM
same,TGI,HOP-62 NSCLC,48.4 µM
same,TGI,SW-620 colon,35 µM
same,TGI,K-562 leukemia,> 100 µM
same,TGI,SK-OV-3 ovarian,42.7 µM
same,TGI,NCI-H23 lung,28 µM
same,TGI,HL-60(TB) leukemia,24.3 µM
same,TGI,MDA-N,28.3 µM
same,TGI,PC-3 prostate,25.7 µM
same,TGI,NCI/ADR-RES ovarian,27.3 µM
same,TGI,EKVX NSCLC,21.1 µM
same,TGI,UACC-62 melanoma,30.4 µM
same,TGI,MDA-MB-231 breast,27.4 µM
same,TGI,HCC-2998 colon,4.15 µM
same,TGI,ACHN renal,27.6 µM
same,TGI,SK-MEL-5 melanoma,24.3 µM
same,TGI,UACC-257 melanoma,20.6 µM
same,TGI,RXF 393 renal,22.7 µM
same,TGI,SK-MEL-28 melanoma,31.1 µM
same,TGI,NCI-H522 lung,31.5 µM
same,TGI,MOLT-4 leukemia,> 100 µM
same,TGI,786-0 renal,27.7 µM
same,TGI,IGROV1 ovarian,25 µM
same,TGI,SN12C renal,31.1 µM
same,TGI,KM12 colon,33.7 µM
same,TGI,SF-295 CNS,45.8 µM
same,TGI,SNB-75 CNS,27 µM
same,TGI,NCI-H460 lung,29.4 µM
same,TGI,A498 renal,27.6 µM
same,TGI,SF-268 CNS,33.8 µM
same,TGI,T-47D breast,28.5 µM
same,TGI,BT-549 breast,26.9 µM
same,TGI,SNB-19 CNS,29.2 µM
same,TGI,HT29 colon,28.3 µM
same,TGI,HOP-92 NSCLC,27.2 µM
same,TGI,MDA-MB-435,24.4 µM
same,TGI,COLO 205 colon,18.9 µM
same,TGI,MCF7 breast,27.6 µM
same,TGI,HS 578T breast,> 100 µM
same,TGI,OVCAR-3 ovarian,40.1 µM
same,TGI,M14 melanoma,19 µM
same,TGI,HCT-15 colon,29.3 µM
same,TGI,OVCAR-4 ovarian,31.5 µM
same,TGI,CAKI-1 renal,21.9 µM
same,TGI,UO-31 renal,16.3 µM
